Tests used:
cloned human FP receptor = target: T1, cloned human FP receptor (Homo sapiens, UniProt P43088); test: [3H]PGF2α competition binding assay with membranes of pcDNAIamp-hFP transfected COS-M6 cells; conditions: for rank order of potency for competition of [3H]PGF2α specific binding: transfected COS-M6 membranes, 0.03 nM-10 μM competitor
T1 construct: A long open reading frame (1077 bp) was determined which would result in a 359 amino acid polypeptide; expressed in transfected cells; host or cells: COS-M6 cells, transient DEAE-dextran transfection with pcDNAIamp-hFP; 100,000 x g membrane fraction
T1 sequence (P43088 whole entry): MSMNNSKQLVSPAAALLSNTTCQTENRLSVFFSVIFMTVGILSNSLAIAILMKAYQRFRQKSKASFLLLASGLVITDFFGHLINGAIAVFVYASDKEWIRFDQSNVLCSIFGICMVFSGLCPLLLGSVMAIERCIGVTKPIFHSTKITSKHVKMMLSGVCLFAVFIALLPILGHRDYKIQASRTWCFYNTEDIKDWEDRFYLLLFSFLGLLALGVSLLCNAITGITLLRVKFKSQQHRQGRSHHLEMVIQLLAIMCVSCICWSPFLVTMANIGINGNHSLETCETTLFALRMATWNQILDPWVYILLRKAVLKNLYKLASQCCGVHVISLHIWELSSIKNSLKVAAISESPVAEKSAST
Procedure: The recently cloned human prostaglandin F2a (FP) receptor was subcloned into the pcDNA lamp plasmid (Invitrogen) and transfected into COS-M6 cells using the DEAE-dextran method. The cells were maintained in culture for 72 h, then harvested and membranes prepared by differential centrifugation (1000×g for 10 min, then 100,000×g for 30 min) following lysis of the cells by nitrogen cavitation. […] Incubations were conducted for 1 h at room temperature prior to separation of the bound and free radioligand by rapid filtration through Whatman GF/B filters presoaked at 4° C. in washing buffer ([…] (pH 6.0) containing 0.01% bovine serum albumin).

FP receptor [1] = target: T2, FP receptor (Homo sapiens, UniProt P43088); test: electrophysiological assay (Ca2+-dependent Cl- current) in pcDNAIamp-FP-injected Xenopus oocytes; assay type: cell-based; conditions: perfusion of 10 nM, oocyte voltage clamped at -60 mV
T2 construct: A long open reading frame (1077 bp) was determined which would result in a 359 amino acid polypeptide; expressed in transfected cells; host or cells: Xenopus laevis oocytes (stage 5-6), nuclear injection of 1-5 ng pcDNAIamp-FP plasmid
T2 sequence (P43088 whole entry, the tested form may be a part): as the sequence (P43088 whole entry) above
Procedure: (§1) Ooctyes were taken from adult females of Xenopus laevis using standard surgical procedure (Colman, A., 1984 In: Transcription and Translation—A Practical Approach, IRL Press). To remove follicle cells, oocytes were treated for 2-3 h with freshly made collagenase (2 mg/ml, type 2, Worthington Biochemical Corp., Freehold, N.J.) in Ca^2+-free ND96 solution (ND96 in mM: NaCl 96, KCl 2, MgCl2 1, HEPES 5, Na-pyruvate 2.5, theophylline 0.5, gentamicin […], +1.8 CaCl2, pH 7.6). Defolliculated stage 5-6 oocytes were selected and maintained in ND96 solution. Ooctye nuclei were injected with 1-5 ng of pcDNAIamp-PP and then incubated at 18° C. for 48 h before challenge with agonist. Functional activity was determined by measurement of either agonist-induced Ca^2+-dependent Cl^− current or light emission in oocytes injected with the Ca^2+-specific photoprotein aequorin (J. Blinks, Friday Harbor Photoproteins, Wash.), (Giladi and Spindel 1991 Biotechniques, 10, pp 744-747). […] Ligand-containing solution was perfused and the current response was recorded. For the luminometric assay, aequorin-loaded oocytes (100 ng/oocyte) were placed individually in cuvettes containing 0.4 ml ND96 and the light emission provoked by ligand addition was recorded using a Bio-Orbit 1251 luminometer (Fisher Sci. Ltd.).

FP receptor [2] = target: T2, FP receptor; test: aequorin luminescence assay in pcDNAIamp-FP-injected Xenopus oocytes; assay type: cell-based; conditions: aequorin-loaded oocytes, compared to PGE2
Procedure: as §1

Compound | rank order of potency for competition of [3H]PGF2α specific binding (cloned human FP receptor) | agonist-induced Ca2+-dependent Cl- current response (FP receptor [1]) | agonist potency from dose-response of aequorin light emission (FP receptor [2]) | IC50 (cloned human FP receptor) [nM]
CCCCC[C@H](O)/C=C/[C@H]1C(=O)C[C@H](O)[C@@H]1C/C=C\CCCC(=O)O [PGD2] | PGF2α=fluprostenol>PGD2>>PGE2≈U46619>iloprost | – | – | –
CCCCC[C@H](O)/C=C/[C@@H]1[C@@H](C/C=C\CCCC(=O)O)[C@H]2CO[C@@H]1C2 [U46619] | PGF2α=fluprostenol>PGD2>>PGE2≈U46619>iloprost | – | – | –
CC#CCC(C)[C@H](O)/C=C/[C@@H]1[C@H]2C/C(=C/CCCC(=O)O)C[C@H]2C[C@H]1O (some centres unmarked) [iloprost] | PGF2α=fluprostenol>PGD2>>PGE2≈U46619>iloprost | – | – | –
CCCCC[C@H](O)/C=C/[C@H]1[C@H](O)CC(=O)[C@@H]1C/C=C\CCCC(=O)O [PGE2] | PGF2α=fluprostenol>PGD2>>PGE2≈U46619>iloprost | – | – | –
O=C(O)CCC/C=C\C[C@@H]1[C@@H](/C=C/[C@@H](O)COc2cccc(C(F)(F)F)c2)[C@H](O)C[C@@H]1O (racemic) [fluprostenol] | PGF2α=fluprostenol>PGD2>>PGE2≈U46619>iloprost | prominent current responses | more potent agonists | 3.5
